Measured values as given in patent publication US20230382940A1, “ANTIVIRAL COMPOUNDS AND METHODS OF MAKING AND USING THE SAME” (Gilead Sciences, Inc., priority 2022, published 2023).

What was measured:
[1] = system: Respiratory syncytial virus recombinant with luciferase (RSV-Luc5); test: NHBE RSV-Luc5 384-well assay (EC50 RSVFLUC NHBE-384 v2), Example W; type: cell-based; details: human respiratory syncytial virus, 72 h, read-out: EC50 RSV FLUC NHBE 384 V2 (per Ex. W)
How it was run: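 Primary NHBE cells (passage 2), 5,000/well, infected with RSV-Luc5 at MOI 1 alongside 10-point 1:3 compound dilutions; 3 days at 37° C. Replication read by One-Glo luminescence, normalized to remdesivir (0%) and DMSO (100%); EC50 = concentration reducing replication by 50%, from non-linear regression.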

[2] = GI S9 stability, rat, Example Y; type: in vitro ADME; details: pooled intestinal S9 fractions; rat intestinal S9, 1.0 mg/mL protein, 2 μM compound, pH 7.4; read-out: GIS9 Rat T½ (per Ex. Y)
Protocol: (§1) Example Y: GI S9 Stability Data
(§2) Stock solutions of test compounds in dimethyl sulfoxide (DMSO) having a final concentration of 10 mM were prepared and used in all experiments. Sekisui XenoTech (Kansas City, KS) provided pooled intestinal S9 fractions. All other chemicals were purchased from Sigma-Aldrich (St. Louis, MO) or VWR (West Chester, PA). Internal Standard/Quench (IS/Q) used to stop reactions was 100 nM labetalol in (by volume) methanol (10%) and acetonitrile (90%).
(§3) Stability in Intestinal S9 Fractions: Duplicate aliquots of test compound or positive control substrate were added to S9 stock diluted with phosphate buffered saline (137 mM NaCl, 2.7 mM KCl, 10 mM phosphate buffer), pH 7.4, to obtain a protein concentration of 1.0 mg/mL. The metabolic reactions were initiated by the addition of the substrates to the S9 reaction mixture to a final concentration of 2 μM. At 0, 10, 20, 30, 60 and 120 min, 25 μL aliquots of the reaction mixture were transferred to plates containing 225 μl of IS/Q solution. After quenching, the plates were centrifuged at 3000×g for 30 minutes. 150 μL aliquots of each supernatant were dried down then reconstituted with 300 μL water. Aliquots (10 μL) of the prepared samples were analyzed on a Thermo Q-Exactive mass spectrometer as described below.
(§4) Liquid Chromatography—Mass Spectrometry: Quantification of test compounds and control substrate was performed by analyte/internal standard peak area ratio (PAR) values measured on a Thermo Q-Exactive mass spectrometer coupled to a Dionex UltiMate 3000 HPLC with a Leap Technologies HTC PAL autosampler. The column used for analysis was a Waters Acquity BEH C18 (1.7 μm particle size, 2.1×50 mm). Mobile phase A consisted of 0.1% (v/v) formic acid in water. Mobile phase B consisted of 0.1% (v/v) formic acid in acetonitrile. Elution of analytes was achieved by a series of linear gradients varying the proportions of A and B. The mass spectrometer was calibrated on a weekly basis and mass tolerance of 5 ppm was used.
(§5) Metabolic stabilities in S9 fractions were determined by measuring the rates of disappearance of test compound and positive control substrate.
(§6) Data (% of substrate remaining) were plotted on a semi-log scale and fitted using an exponential decline model:
(§7) Ct=C0×e^−ln2/T1/2×t • Where Ct—% of substrate remaining at time=t; C0—% of substrate remaining at time=0; t—time; T1/2—half-life. • The Half-life (T1/2) is determined by the following equation: […]
(§8) Assuming a first-order reaction, the slope (k) is extrapolated from the aforementioned plotted data.

[3] = GI S9 stability, human, Example Y; type: in vitro ADME; details: pooled intestinal S9 fractions; human intestinal S9, 1.0 mg/mL protein, 2 μM compound, pH 7.4; read-out: GIS9 Human T½ (per Ex. Y)
Protocol: as §1, §2, §3, §4, §5, §6, §7, §8

SMILES	EC50 [1]	half-life at 2 μM [2]	half-life at 2 μM [3]
CC1(C)CC(OC(=O)OC[C@@]2(C#N)O[C@@H](c3ccc4c(N)ncnn34)[C@H](O)[C@@H]2O)C1 [Compound 37, ((2R,3S,4R,5S)-5-(4-aminopyrrolo[2,1-f][1,2,4]triazin-7-yl)-2-cyano-3,4-dihydroxytetrahydrofuran-2-yl)methyl (3,3-dimethylcyclobutyl) carbonate]	7.44 µM	4 min	29 min
COC[C@@H](C)OC(=O)OC[C@@]1(C#N)O[C@@H](c2ccc3c(N)ncnn23)[C@H](O)[C@@H]1O [Compound 38, ((2R,3S,4R,5S)-5-(4-aminopyrrolo[2,1-f][1,2,4]triazin-7-yl)-2-cyano-3,4-dihydroxytetrahydrofuran-2-yl)methyl ((R)-1-methoxypropan-2-yl) carbonate]	7.61 µM	38 min	292 min
N#C[C@]1(COC(=O)O[C@@H]2C[C@@H]3C[C@@H]3C2)O[C@@H](c2ccc3c(N)ncnn23)[C@H](O)[C@@H]1O [Compound 39, ((2R,3S,4R,5S)-5-(4-aminopyrrolo[2,1-f][1,2,4]triazin-7-yl)-2-cyano-3,4-dihydroxytetrahydrofuran-2-yl)methyl ((1R,3r,5S)-bicyclo[3.1.0]hexan-3-yl) carbonate]	7.84 µM	7 min	27 min
C[C@H]1CC[C@H](OC(=O)OC[C@@]2(C#N)O[C@@H](c3ccc4c(N)ncnn34)[C@H](O)[C@@H]2O)CC1 [Compound 40, ((2R,3S,4R,5S)-5-(4-aminopyrrolo[2,1-f][1,2,4]triazin-7-yl)-2-cyano-3,4-dihydroxytetrahydrofuran-2-yl)methyl ((1r,4R)-4-methylcyclohexyl) carbonate]	7.42 µM	6 min	36 min
